Test results: ChEMBL document CHEMBL1155409, “Ultrasmall particle of iron oxide--RGD peptidomimetic conjugate: synthesis and characterisation” (Bioorg Med Chem Lett, 2010)

biological target: Integrin alpha-V/beta-3 (Homo sapiens); test: Inhibition of human Integrin alphaVbeta3 isolated receptors assessed by standard competitive binding assay

| SMILES | IC50 [nM] |
| --- | --- |
| NCCOCCOCCOCCOCCOCCOCC(=O)Nc1cc(C[C@H](NS(=O)(=O)c2cccc(C(F)(F)F)c2)C(=O)O)ccc1OCCCc1ccc2c(n1)NCCC2 | 0.7 |
| COCCOCCOCCOCC(=O)Nc1cc(C[C@H](NS(=O)(=O)c2cccc(C(F)(F)F)c2)C(=O)O)ccc1OCCCc1ccc2c(n1)NCCC2 | 0.3 |
| Nc1cc(C[C@H](NS(=O)(=O)c2cccc(C(F)(F)F)c2)C(=O)O)ccc1OCCCc1ccc2c(n1)NCCC2 | 0.1 |
